Reference: the NIST ThermoML archive (doi:10.1016/j.jct.2018.05.004)
Numbers after ± are expanded uncertainties.

Test: mn = molality of the nth substance listed, in mol/kg
Conditions: 100 kPa, Liquid; for speed of sound: Frequency=3 MHz, Single path-length method; for mass density: Vibrating tube method

O=C([O-])CC(O)(CC(=O)[O-])C(=O)[O-].[Li+].[Li+].[Li+] [trilithium citrate] + O
speed of sound (288.15 K, m1 = 0.2): 1509.2 ± 16 m/s
speed of sound (288.15 K, m1 = 0.4): 1548 ± 16 m/s
speed of sound (288.15 K, m1 = 0.6): 1589.2 ± 16 m/s
mass density (288.15 K, m1 = 0.2): 1027.21 ± 8 kg/m3
mass density (288.15 K, m1 = 0.4): 1052.75 ± 8.1 kg/m3
mass density (288.15 K, m1 = 0.6): 1078.28 ± 8.1 kg/m3
speed of sound (298.15 K, m1 = 0.2): 1535.8 ± 16 m/s
speed of sound (298.15 K, m1 = 0.4): 1572.6 ± 16 m/s
speed of sound (298.15 K, m1 = 0.6): 1610.5 ± 16 m/s
mass density (298.15 K, m1 = 0.2): 1025.32 ± 8 kg/m3
mass density (298.15 K, m1 = 0.4): 1050.41 ± 8.1 kg/m3
mass density (298.15 K, m1 = 0.6): 1075.38 ± 8.1 kg/m3
speed of sound (308.15 K, m1 = 0.2): 1556 ± 16 m/s
speed of sound (308.15 K, m1 = 0.4): 1590.3 ± 16 m/s
speed of sound (308.15 K, m1 = 0.6): 1625.9 ± 16 m/s
mass density (308.15 K, m1 = 0.2): 1021.67 ± 8 kg/m3
mass density (308.15 K, m1 = 0.4): 1046.92 ± 8.1 kg/m3
mass density (308.15 K, m1 = 0.6): 1071.84 ± 8.1 kg/m3
speed of sound (318.15 K, m1 = 0.2): 1570.2 ± 16 m/s
speed of sound (318.15 K, m1 = 0.4): 1602.4 ± 16 m/s
speed of sound (318.15 K, m1 = 0.6): 1635.7 ± 16 m/s
mass density (318.15 K, m1 = 0.2): 1017.79 ± 8 kg/m3
mass density (318.15 K, m1 = 0.4): 1042.96 ± 8.1 kg/m3
mass density (318.15 K, m1 = 0.6): 1068 ± 8.1 kg/m3

OC[C@H]1O[C@@](CO)(O[C@H]2O[C@H](CO)[C@@H](O)[C@H](O)[C@H]2O)[C@@H](O)[C@@H]1O [D-sucrose] + O
speed of sound (288.15 K, m1 = 0.1002): 1476.3 ± 16 m/s
speed of sound (288.15 K, m1 = 0.2007): 1486.2 ± 16 m/s
speed of sound (288.15 K, m1 = 0.3011): 1496 ± 16 m/s
speed of sound (288.15 K, m1 = 0.4034): 1506 ± 16 m/s
speed of sound (288.15 K, m1 = 0.4996): 1515.3 ± 16 m/s
speed of sound (288.15 K, m1 = 0.6018): 1525.2 ± 16 m/s
speed of sound (288.15 K, m1 = 0.7022): 1534.9 ± 16 m/s
speed of sound (288.15 K, m1 = 0.7978): 1543.9 ± 16 m/s
speed of sound (288.15 K, m1 = 0.8955): 1552.9 ± 16 m/s
speed of sound (288.15 K, m1 = 0.9969): 1562.2 ± 16 m/s
mass density (288.15 K, m1 = 0.1002): 1012.01 ± 8 kg/m3
mass density (288.15 K, m1 = 0.2007): 1024.37 ± 8 kg/m3
mass density (288.15 K, m1 = 0.3011): 1036.19 ± 8 kg/m3
mass density (288.15 K, m1 = 0.4034): 1047.72 ± 8.1 kg/m3
mass density (288.15 K, m1 = 0.4996): 1058.12 ± 8.1 kg/m3
mass density (288.15 K, m1 = 0.6018): 1068.73 ± 8.1 kg/m3
mass density (288.15 K, m1 = 0.7022): 1078.71 ± 8.1 kg/m3
mass density (288.15 K, m1 = 0.7978): 1087.87 ± 8.1 kg/m3
mass density (288.15 K, m1 = 0.8955): 1096.86 ± 8.2 kg/m3
mass density (288.15 K, m1 = 0.9969): 1105.83 ± 8.2 kg/m3
speed of sound (298.15 K, m1 = 0.1002): 1506 ± 16 m/s
speed of sound (298.15 K, m1 = 0.2007): 1515 ± 16 m/s
speed of sound (298.15 K, m1 = 0.3011): 1524 ± 16 m/s
speed of sound (298.15 K, m1 = 0.4034): 1533.2 ± 16 m/s
speed of sound (298.15 K, m1 = 0.4996): 1541.7 ± 16 m/s
speed of sound (298.15 K, m1 = 0.6018): 1550.6 ± 16 m/s
speed of sound (298.15 K, m1 = 0.7022): 1559.3 ± 16 m/s
speed of sound (298.15 K, m1 = 0.7978): 1567.4 ± 16 m/s
speed of sound (298.15 K, m1 = 0.8955): 1575.6 ± 16 m/s
speed of sound (298.15 K, m1 = 0.9969): 1583.8 ± 16 m/s
mass density (298.15 K, m1 = 0.1002): 1009.81 ± 8 kg/m3
mass density (298.15 K, m1 = 0.2007): 1022.04 ± 8 kg/m3
mass density (298.15 K, m1 = 0.3011): 1033.73 ± 8 kg/m3
mass density (298.15 K, m1 = 0.4034): 1045.13 ± 8 kg/m3
mass density (298.15 K, m1 = 0.4996): 1055.43 ± 8.1 kg/m3
mass density (298.15 K, m1 = 0.6018): 1065.92 ± 8.1 kg/m3
mass density (298.15 K, m1 = 0.7022): 1075.81 ± 8.1 kg/m3
mass density (298.15 K, m1 = 0.7978): 1084.86 ± 8.1 kg/m3
mass density (298.15 K, m1 = 0.8955): 1093.77 ± 8.2 kg/m3
mass density (298.15 K, m1 = 0.9969): 1102.65 ± 8.2 kg/m3
speed of sound (308.15 K, m1 = 0.1002): 1528.2 ± 16 m/s
speed of sound (308.15 K, m1 = 0.2007): 1536.5 ± 16 m/s
speed of sound (308.15 K, m1 = 0.3011): 1544.7 ± 16 m/s
speed of sound (308.15 K, m1 = 0.4034): 1553.1 ± 16 m/s
speed of sound (308.15 K, m1 = 0.4996): 1561 ± 16 m/s
speed of sound (308.15 K, m1 = 0.6018): 1569.3 ± 16 m/s
speed of sound (308.15 K, m1 = 0.7022): 1577.2 ± 16 m/s
speed of sound (308.15 K, m1 = 0.7978): 1584.8 ± 16 m/s
speed of sound (308.15 K, m1 = 0.8955): 1592.3 ± 16 m/s
speed of sound (308.15 K, m1 = 0.9969): 1600.1 ± 16 m/s
mass density (308.15 K, m1 = 0.1002): 1006.68 ± 8 kg/m3
mass density (308.15 K, m1 = 0.2007): 1018.8 ± 8 kg/m3
mass density (308.15 K, m1 = 0.3011): 1030.39 ± 8 kg/m3
mass density (308.15 K, m1 = 0.4034): 1041.69 ± 8 kg/m3
mass density (308.15 K, m1 = 0.4996): 1051.89 ± 8.1 kg/m3
mass density (308.15 K, m1 = 0.6018): 1062.29 ± 8.1 kg/m3
mass density (308.15 K, m1 = 0.7022): 1072.09 ± 8.1 kg/m3
mass density (308.15 K, m1 = 0.7978): 1081.07 ± 8.1 kg/m3
mass density (308.15 K, m1 = 0.8955): 1089.9 ± 8.2 kg/m3
mass density (308.15 K, m1 = 0.9969): 1098.71 ± 8.2 kg/m3
speed of sound (318.15 K, m1 = 0.1002): 1544 ± 16 m/s
speed of sound (318.15 K, m1 = 0.2007): 1552.6 ± 16 m/s
speed of sound (318.15 K, m1 = 0.3011): 1560.1 ± 16 m/s
speed of sound (318.15 K, m1 = 0.4034): 1567.7 ± 16 m/s
speed of sound (318.15 K, m1 = 0.4996): 1576 ± 16 m/s
speed of sound (318.15 K, m1 = 0.6018): 1584.2 ± 16 m/s
speed of sound (318.15 K, m1 = 0.7022): 1592 ± 16 m/s
speed of sound (318.15 K, m1 = 0.7978): 1599.6 ± 16 m/s
speed of sound (318.15 K, m1 = 0.8955): 1606.7 ± 16 m/s
speed of sound (318.15 K, m1 = 0.9969): 1614.4 ± 16 m/s
mass density (318.15 K, m1 = 0.1002): 1002.77 ± 8 kg/m3
mass density (318.15 K, m1 = 0.2007): 1014.82 ± 8 kg/m3
mass density (318.15 K, m1 = 0.3011): 1026.34 ± 8 kg/m3
mass density (318.15 K, m1 = 0.4034): 1037.58 ± 8 kg/m3
mass density (318.15 K, m1 = 0.4996): 1047.73 ± 8.1 kg/m3
mass density (318.15 K, m1 = 0.6018): 1058.07 ± 8.1 kg/m3
mass density (318.15 K, m1 = 0.7022): 1067.82 ± 8.1 kg/m3
mass density (318.15 K, m1 = 0.7978): 1076.72 ± 8.1 kg/m3
mass density (318.15 K, m1 = 0.8955): 1085.49 ± 8.2 kg/m3
mass density (318.15 K, m1 = 0.9969): 1094.23 ± 8.2 kg/m3

O=C([O-])CC(O)(CC(=O)[O-])C(=O)[O-].[NH4+].[NH4+].[NH4+] [ammonium 2-hydroxypropane-1,2,3-tricarboxylate] + O
speed of sound (288.15 K, m1 = 0.2): 1503.1 ± 16 m/s
speed of sound (288.15 K, m1 = 0.4): 1540.4 ± 16 m/s
speed of sound (288.15 K, m1 = 0.6): 1578.7 ± 16 m/s
mass density (288.15 K, m1 = 0.2): 1021.37 ± 8 kg/m3
mass density (288.15 K, m1 = 0.4): 1043.45 ± 8 kg/m3
mass density (288.15 K, m1 = 0.6): 1063.76 ± 8.1 kg/m3
speed of sound (298.15 K, m1 = 0.2): 1532 ± 16 m/s
speed of sound (298.15 K, m1 = 0.4): 1567.3 ± 16 m/s
speed of sound (298.15 K, m1 = 0.6): 1603.6 ± 16 m/s
mass density (298.15 K, m1 = 0.2): 1019 ± 8 kg/m3
mass density (298.15 K, m1 = 0.4): 1040.15 ± 8 kg/m3
mass density (298.15 K, m1 = 0.6): 1060.41 ± 8.1 kg/m3
speed of sound (308.15 K, m1 = 0.2): 1553.5 ± 16 m/s
speed of sound (308.15 K, m1 = 0.4): 1587.8 ± 16 m/s
speed of sound (308.15 K, m1 = 0.6): 1621.9 ± 16 m/s
mass density (308.15 K, m1 = 0.2): 1015.71 ± 8 kg/m3
mass density (308.15 K, m1 = 0.4): 1037.34 ± 8 kg/m3
mass density (308.15 K, m1 = 0.6): 1057.21 ± 8.1 kg/m3
speed of sound (318.15 K, m1 = 0.2): 1569 ± 16 m/s
speed of sound (318.15 K, m1 = 0.4): 1602.3 ± 16 m/s
speed of sound (318.15 K, m1 = 0.6): 1635.4 ± 16 m/s
mass density (318.15 K, m1 = 0.2): 1011.75 ± 8 kg/m3
mass density (318.15 K, m1 = 0.4): 1033.31 ± 8 kg/m3
mass density (318.15 K, m1 = 0.6): 1052.93 ± 8.1 kg/m3
